Among the data in US11739098B2 (BRISTOL-MYERS SQUIBB COMPANY, priority 2017, dated 2023) are IC50 values, retold here.

What all share (type): cell-based
For experiment [1], the target named is T1, human TLR9 (Homo sapiens, UniProt Q9NR96).
T1 construct: host or cells: HEK-Blue cells (HEK293-derived reporter line)
T1 sequence (Q9NR96 26-1032): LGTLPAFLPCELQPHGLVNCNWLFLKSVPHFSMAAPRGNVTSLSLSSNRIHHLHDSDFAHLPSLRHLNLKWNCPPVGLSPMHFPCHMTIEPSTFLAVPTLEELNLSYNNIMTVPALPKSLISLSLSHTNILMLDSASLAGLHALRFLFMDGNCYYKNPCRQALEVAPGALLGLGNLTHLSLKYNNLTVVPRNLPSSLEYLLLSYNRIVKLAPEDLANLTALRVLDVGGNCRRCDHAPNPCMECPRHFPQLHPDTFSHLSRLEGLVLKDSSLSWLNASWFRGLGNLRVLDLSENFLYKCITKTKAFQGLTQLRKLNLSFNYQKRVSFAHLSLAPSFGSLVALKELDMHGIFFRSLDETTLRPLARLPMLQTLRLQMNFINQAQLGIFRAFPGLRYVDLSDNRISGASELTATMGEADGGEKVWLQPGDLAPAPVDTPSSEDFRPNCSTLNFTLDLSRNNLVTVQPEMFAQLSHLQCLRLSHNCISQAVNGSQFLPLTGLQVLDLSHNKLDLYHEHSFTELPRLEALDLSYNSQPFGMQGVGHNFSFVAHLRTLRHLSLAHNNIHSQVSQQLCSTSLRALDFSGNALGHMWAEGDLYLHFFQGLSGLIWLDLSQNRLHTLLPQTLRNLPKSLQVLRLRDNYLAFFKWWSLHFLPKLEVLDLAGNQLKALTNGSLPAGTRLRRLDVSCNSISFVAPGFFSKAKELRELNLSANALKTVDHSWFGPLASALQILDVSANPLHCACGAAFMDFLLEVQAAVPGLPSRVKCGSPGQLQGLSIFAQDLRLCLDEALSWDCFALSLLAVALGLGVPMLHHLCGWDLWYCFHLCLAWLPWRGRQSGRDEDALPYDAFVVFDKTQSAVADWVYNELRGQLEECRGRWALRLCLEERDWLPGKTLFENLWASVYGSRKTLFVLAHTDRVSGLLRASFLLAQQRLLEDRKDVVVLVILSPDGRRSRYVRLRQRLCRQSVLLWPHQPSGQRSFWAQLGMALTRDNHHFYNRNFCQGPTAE
Put plainly: TLR9 inhibition reporter assay (HEK-Blue cells, SEAP reporter, ODN2006 stimulation). The settings on record: HEK-Blue cells overexpressing human TLR9, SEAP reporter, ODN2006 5 nM. In a few lines:
(§1)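 Percent inhibition of agonist-induced SEAP secretion in HEK-Blue cells after 22 h at 37 °C. Stimuli: 7.5 μM gardiquimod, 15.9 μM R848, 5 nM ODN2006 for TLR7, TLR8 and TLR9, added after 30 min compound exposure over a 0.05 nM–50 μM range.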
Background: A reporter such as luciferase makes a cellular process visible.

For experiment [2], the target named is T2, human TLR8 (Homo sapiens, UniProt Q9NR97).
T2 construct: host or cells: HEK-Blue cells (HEK293-derived reporter line)
T2 sequence (Q9NR97 27-1041): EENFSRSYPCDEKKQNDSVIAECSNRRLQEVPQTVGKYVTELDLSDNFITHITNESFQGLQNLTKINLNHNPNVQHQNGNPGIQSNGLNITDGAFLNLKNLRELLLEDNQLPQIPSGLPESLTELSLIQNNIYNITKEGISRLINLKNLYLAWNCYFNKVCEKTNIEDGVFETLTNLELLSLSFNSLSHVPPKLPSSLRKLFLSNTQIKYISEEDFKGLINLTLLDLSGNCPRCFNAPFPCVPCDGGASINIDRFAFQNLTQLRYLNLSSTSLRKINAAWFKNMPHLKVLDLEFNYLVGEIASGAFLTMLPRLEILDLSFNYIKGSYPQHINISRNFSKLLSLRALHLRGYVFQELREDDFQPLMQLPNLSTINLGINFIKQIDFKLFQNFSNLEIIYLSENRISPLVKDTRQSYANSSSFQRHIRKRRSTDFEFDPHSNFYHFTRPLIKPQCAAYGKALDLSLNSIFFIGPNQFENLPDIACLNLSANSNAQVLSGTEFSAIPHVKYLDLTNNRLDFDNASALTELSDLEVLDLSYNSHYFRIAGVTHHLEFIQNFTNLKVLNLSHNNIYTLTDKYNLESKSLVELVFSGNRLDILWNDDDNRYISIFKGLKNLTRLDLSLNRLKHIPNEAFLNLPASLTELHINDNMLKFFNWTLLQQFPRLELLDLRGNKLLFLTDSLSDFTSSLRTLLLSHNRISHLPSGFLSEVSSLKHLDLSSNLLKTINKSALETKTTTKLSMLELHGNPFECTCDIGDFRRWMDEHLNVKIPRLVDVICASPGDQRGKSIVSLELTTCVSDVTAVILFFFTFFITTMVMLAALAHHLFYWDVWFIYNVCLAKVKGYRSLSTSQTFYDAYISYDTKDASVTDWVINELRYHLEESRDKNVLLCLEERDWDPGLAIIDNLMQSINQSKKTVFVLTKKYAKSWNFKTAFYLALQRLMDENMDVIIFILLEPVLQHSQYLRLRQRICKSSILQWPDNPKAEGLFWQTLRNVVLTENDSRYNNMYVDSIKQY
The experiment is described as follows: TLR8 inhibition reporter assay (HEK-Blue cells, SEAP reporter, R848 stimulation). The following applies: HEK-Blue cells overexpressing human TLR8, SEAP reporter, R848 15.9 μM. The gist of the method: as §1

For experiment [3], the target named is T3, human TLR7 (Homo sapiens, UniProt Q9NYK1).
T3 construct: host or cells: HEK-Blue cells (HEK293-derived reporter line)
T3 sequence (Q9NYK1 27-1049): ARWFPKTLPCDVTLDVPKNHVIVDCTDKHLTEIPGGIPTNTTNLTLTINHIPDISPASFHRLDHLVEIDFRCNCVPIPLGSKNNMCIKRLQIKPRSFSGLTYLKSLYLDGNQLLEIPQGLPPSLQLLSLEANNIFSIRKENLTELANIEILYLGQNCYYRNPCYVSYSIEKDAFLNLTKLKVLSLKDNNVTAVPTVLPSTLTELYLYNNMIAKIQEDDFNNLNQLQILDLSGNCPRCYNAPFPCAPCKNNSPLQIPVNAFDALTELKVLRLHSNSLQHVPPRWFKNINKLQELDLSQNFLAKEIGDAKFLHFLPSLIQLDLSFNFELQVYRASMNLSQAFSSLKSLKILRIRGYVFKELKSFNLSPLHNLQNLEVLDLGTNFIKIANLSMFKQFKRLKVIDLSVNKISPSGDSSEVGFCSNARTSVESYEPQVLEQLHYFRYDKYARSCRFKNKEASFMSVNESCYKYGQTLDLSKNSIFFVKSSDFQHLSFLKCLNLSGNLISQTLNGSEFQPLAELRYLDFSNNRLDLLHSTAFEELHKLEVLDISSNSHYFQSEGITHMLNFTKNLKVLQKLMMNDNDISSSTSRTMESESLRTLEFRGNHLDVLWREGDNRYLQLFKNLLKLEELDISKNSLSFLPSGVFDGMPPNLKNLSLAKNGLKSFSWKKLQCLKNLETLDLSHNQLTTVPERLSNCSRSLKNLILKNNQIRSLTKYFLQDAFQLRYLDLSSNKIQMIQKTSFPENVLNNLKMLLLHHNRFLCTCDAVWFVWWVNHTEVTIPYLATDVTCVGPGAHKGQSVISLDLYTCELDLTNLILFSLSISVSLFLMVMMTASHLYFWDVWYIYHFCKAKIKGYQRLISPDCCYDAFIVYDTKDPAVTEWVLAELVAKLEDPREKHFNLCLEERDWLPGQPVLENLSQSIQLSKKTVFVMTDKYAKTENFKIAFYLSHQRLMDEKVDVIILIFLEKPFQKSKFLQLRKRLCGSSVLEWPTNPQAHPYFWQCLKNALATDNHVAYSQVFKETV
The experiment is described as follows: TLR7 inhibition reporter assay (HEK-Blue cells, SEAP reporter, gardiquimod stimulation). The settings on record: HEK-Blue cells overexpressing human TLR7, SEAP reporter, gardiquimod 7.5 μM. The gist of the method: as §1

A value given as a limit tells only on which side of the number the result lay.

With `Cc1cc(-c2[nH]c3ccc(C4CCN(CC(C)(C)O)CC4)cc3c2C(C)C)cn2ccnc12` [Example 774, 1-(4-(3-isopropyl-2-(8-methylimidazo[1,2-a]pyridin-6-yl)-1H-indol-5-yl)piperidin-1-yl)-2-methylpropan-2-ol], the IC50 (commonly the concentration at which inhibition is half-maximal) in experiment [1] was 100 to 1000 nM; in experiment [2] it was less than 100 nM; in experiment [3], less than 100 nM.
`CC(C)c1c(-c2ccnc3[nH]ncc23)[nH]c2ccc(C3CCN(C(=O)CN4CCC(CO)CC4)CC3)cc12` [Example 576, 2-(4-(hydroxymethyl)piperidin-1-yl)-1-(4-(3-isopropyl-2-(1H-pyrazolo[3,4-b]pyridin-4-yl)-1H-indol-5-yl)piperidin-1-yl)ethan-1-one]: the 50% inhibitory concentration (IC50) is 1000 to 50000 nM in experiment [1], less than 100 nM in experiment [2] and less than 100 nM in experiment [3].
Regarding `CCOc1cc(-c2[nH]c3ccc(C4CCN(CC(=O)N(C)C)CC4)cc3c2C(C)C)cc2ncnn12` [Example 350, 2-(4-(2-(5-ethoxy-[1,2,4]triazolo[1,5-a]pyridin-7-yl)-3-isopropyl-1H-indol-5-yl)piperidin-1-yl)-N,N-dimethylacetamide], the figures for the 50% inhibitory concentration (IC50) in experiment [1], in experiment [2] and in experiment [3] were 1000 to 50000 nM, less than 100 nM and less than 100 nM, respectively.
As for `CC(C)c1c(-c2ccnc3[nH]ncc23)[nH]c2cc(C(F)(F)F)c(C3CCN(CC4CCN(C(C)C)C4)CC3)cc12` (stereo not drawn) [Example 854, 4-(3-isopropyl-5-(1-((1-isopropylpyrrolidin-3-yl)methyl)piperidin-4-yl)-6-(trifluoromethyl)-1H-indol-2-yl)-1H-pyrazolo[3,4-b]pyridine], the IC50 in experiment [1] is 100 to 1000 nM; in experiment [2] it was 100 to 1000 nM; in experiment [3], less than 100 nM.
Take `CNC(=O)c1cnn2c(C)cc(-c3[nH]c4ccc(C5CCNCC5)cc4c3C(C)C)cc12` [Example 274, 5-(3-isopropyl-5-(piperidin-4-yl)-1H-indol-2-yl)-N,7-dimethylpyrazolo[1,5-a]pyridine-3-carboxamide]: the half-inhibitory concentration (IC50) in experiment [1] is 1000 to 50000 nM; in experiment [2] it was greater than 3130 nM; in experiment [3], 100 to 1000 nM.
Taken in the same sequence, the figures for `Cc1c(-c2nccc3[nH]cnc23)[nH]c2ccc(C3CCN(C4CCN(C(C)C)CC4)CC3)cc12` [Example 805, 4-(5-(1′-isopropyl-[1,4′-bipiperidin]-4-yl)-3-methyl-1H-indol-2-yl)-1H-imidazo[4,5-c]pyridine] were less than 100 nM, 1000 to 50000 nM and 1000 to 50000 nM.
On the same counts, the results for `COc1cc(-c2[nH]c3ccc(C4CCN(C(=O)CN(C)C)CC4)cc3c2C(C)C)cc2ncnn12` [Example 532, 2-(dimethylamino)-1-(4-(3-isopropyl-2-(5-methoxy-[1,2,4]triazolo[1,5-a]pyridin-7-yl)-1H-indol-5-yl)piperidin-1-yl)ethan-1-one] are 1000 to 50000 nM, less than 100 nM and less than 100 nM.
On the same counts, the results for `CC(C)c1c(-c2cnc3ncnn3c2)[nH]c2ccc(C3CCN(C4CCS(=O)(=O)CC4)CC3)cc12` [Example 798, 4-(4-(2-([1,2,4]triazolo[1,5-a]pyrimidin-6-yl)-3-isopropyl-1H-indol-5-yl)piperidin-1-yl)tetrahydro-2H-thiopyran 1,1-dioxide] are 1000 to 50000 nM, less than 100 nM and less than 100 nM.
As for `Cc1cc2[nH]c(-c3ccnc4[nH]ncc34)c(C(C)C)c2cc1C1CCNCC1` [Example 250, 4-(3-isopropyl-6-methyl-5-(piperidin-4-yl)-1H-indol-2-yl)-1H-pyrazolo[3,4-b]pyridine], the values for the IC50 in experiment [1], in experiment [2] and in experiment [3] were 100 to 1000 nM, less than 100 nM and less than 100 nM, respectively.
For `CNCC(=O)N1CCC(c2ccc3[nH]c(-c4cc(OC)c5nccn5c4)c(C(C)C)c3c2)CC1` [Example 559, 1-(4-(3-isopropyl-2-(8-methoxyimidazo[1,2-a]pyridin-6-yl)-1H-indol-5-yl)piperidin-1-yl)-2-(methylamino)ethan-1-one], the IC50 is 100 to 1000 nM in experiment [1], less than 100 nM in experiment [2] and less than 100 nM in experiment [3].
Consider `Cc1nc2c(-c3[nH]c4ccc(C5CCNCC5)cc4c3C(C)C)ccc(C)n2n1` [Example 151, 8-(3-isopropyl-5-(piperidin-4-yl)-1H-indol-2-yl)-2,5-dimethyl-[1,2,4]triazolo[1,5-a]pyridine], for which the IC50 in experiment [1], in experiment [2] and in experiment [3] was 100 to 1000 nM throughout.
As to `CNCCN1CCC(c2ccc3[nH]c(-c4ccnc5[nH]ncc45)c(C(C)C)c3c2)C(F)C1` (stereo not drawn) [Example 677, 2-(3-fluoro-4-(3-isopropyl-2-(1H-pyrazolo[3,4-b]pyridin-4-yl)-1H-indol-5-yl)piperidin-1-yl)-N-methylethan-1-amine], the results for the 50% inhibitory concentration (IC50) in experiment [1], in experiment [2] and in experiment [3] were 100 to 1000 nM, less than 100 nM and less than 100 nM, respectively.
